Results as given in patent publication US20250213532A1, “5-METHOXY-N,N-[…][…] THE TREATMENT OF BIPOLAR DISORDER” (GH RESEARCH IRELAND LIMITED, priority 2022, published 2025).

How the values were obtained:
[1] = Acute psychedelic effects after inhalation; set-up: species or system human; conditions: in vivo
[2] = system: patients with clinically diagnosed postpartum depression (PPD); experiment: Clinical trial of inhaled 5-MeO-DMT in postpartum depression: BPRS; type: in vivo, human; conditions: one PPD patient; for BPRS Blunted affect improvement / BPRS Blunted affect score / BPRS Conceptual disorganization improvement / BPRS Conceptual disorganization score / BPRS Disorientation improvement / BPRS Disorientation score / BPRS Grandiosity improvement / BPRS Grandiosity score / BPRS Hallucinatory behaviour improvement / BPRS Hallucinatory behaviour score / BPRS Hostility improvement / BPRS Hostility score / BPRS Mannerisms and Posturing improvement / BPRS Mannerisms and Posturing score / BPRS Motor retardation improvement / BPRS Motor retardation score / BPRS Suspiciousness improvement / BPRS Suspiciousness score / BPRS Uncooperativeness improvement / BPRS Uncooperativeness score / BPRS Unusual Thought Content improvement / BPRS Unusual Thought Content score: baseline 1; for BPRS Excitement improvement / BPRS Excitement score: baseline 2; for BPRS Emotional withdrawal improvement / BPRS Emotional withdrawal score: baseline 5; for BPRS Anxiety improvement / BPRS Anxiety score: baseline 7
Excerpt: The patient completed all planned visit days.

## COc1ccc2[nH]cc(CCN(C)C)c2c1 [5-MeO-DMT]
[1]
  Onset of effect: merely seconds
[2]; Day 1
  BPRS Blunted affect improvement: 0
  BPRS Blunted affect score: 1
  BPRS Conceptual disorganization improvement: 0
  BPRS Conceptual disorganization score: 1
  BPRS Disorientation improvement: 0
  BPRS Disorientation score: 1
  BPRS Grandiosity improvement: 0
  BPRS Grandiosity score: 1
  BPRS Hallucinatory behaviour improvement: 0
  BPRS Hallucinatory behaviour score: 1
  BPRS Hostility improvement: 0
  BPRS Hostility score: 1
  BPRS Mannerisms and Posturing improvement: 0
  BPRS Mannerisms and Posturing score: 1
  BPRS Motor retardation improvement: 0
  BPRS Motor retardation score: 1
  BPRS Suspiciousness improvement: 0
  BPRS Suspiciousness score: 1
  BPRS Uncooperativeness improvement: 0
  BPRS Uncooperativeness score: 1
  BPRS Unusual Thought Content improvement: 0
  BPRS Unusual Thought Content score: 1
  BPRS Excitement improvement: 1
  BPRS Excitement score: 1
  BPRS Emotional withdrawal improvement: 4
  BPRS Emotional withdrawal score: 1
  BPRS Anxiety improvement: 6
  BPRS Anxiety score: 1
[2]; Day 1, baseline 6
  BPRS Depressive Mood improvement: 5
  BPRS Depressive Mood score: 1
  BPRS Guilt feelings improvement: 5
  BPRS Guilt feelings score: 1
  BPRS Somatic Concern improvement: 5
  BPRS Somatic Concern score: 1
  BPRS Tension score: 1
[2]; Day 7
  BPRS Blunted affect improvement: 0
  BPRS Blunted affect score: 1
  BPRS Conceptual disorganization improvement: 0
  BPRS Conceptual disorganization score: 1
  BPRS Disorientation improvement: 0
  BPRS Disorientation score: 1
  BPRS Grandiosity improvement: 0
  BPRS Grandiosity score: 1
  BPRS Hallucinatory behaviour improvement: 0
  BPRS Hallucinatory behaviour score: 1
  BPRS Hostility improvement: 0
  BPRS Hostility score: 1
  BPRS Mannerisms and Posturing improvement: 0
  BPRS Mannerisms and Posturing score: 1
  BPRS Motor retardation improvement: 0
  BPRS Motor retardation score: 1
  BPRS Suspiciousness improvement: 0
  BPRS Suspiciousness score: 1
  BPRS Uncooperativeness improvement: 0
  BPRS Uncooperativeness score: 1
  BPRS Unusual Thought Content improvement: 0
  BPRS Unusual Thought Content score: 1
  BPRS Excitement improvement: 1
  BPRS Excitement score: 1
  BPRS Emotional withdrawal improvement: 4
  BPRS Emotional withdrawal score: 1
  BPRS Anxiety improvement: 6
  BPRS Anxiety score: 1
[2]; Day 7, baseline 6
  BPRS Depressive Mood improvement: 5
  BPRS Depressive Mood score: 1
  BPRS Guilt feelings improvement: 5
  BPRS Guilt feelings score: 1
  BPRS Somatic Concern improvement: 5
  BPRS Somatic Concern score: 1
  BPRS Tension improvement: 5
  BPRS Tension score: 1
[2]; Discharge
  BPRS Blunted affect improvement: 0
  BPRS Blunted affect score: 1
  BPRS Conceptual disorganization improvement: 0
  BPRS Conceptual disorganization score: 1
  BPRS Disorientation improvement: 0
  BPRS Disorientation score: 1
  BPRS Grandiosity improvement: 0
  BPRS Grandiosity score: 1
  BPRS Hallucinatory behaviour improvement: 0
  BPRS Hallucinatory behaviour score: 1
  BPRS Hostility improvement: 0
  BPRS Hostility score: 1
  BPRS Mannerisms and Posturing improvement: 0
  BPRS Mannerisms and Posturing score: 1
  BPRS Motor retardation improvement: 0
  BPRS Motor retardation score: 1
  BPRS Suspiciousness improvement: 0
  BPRS Suspiciousness score: 1
  BPRS Uncooperativeness improvement: 0
  BPRS Uncooperativeness score: 1
  BPRS Unusual Thought Content improvement: 0
  BPRS Unusual Thought Content score: 1
  BPRS Excitement improvement: 1
  BPRS Excitement score: 1
  BPRS Emotional withdrawal improvement: 4
  BPRS Emotional withdrawal score: 1
  BPRS Anxiety improvement: 6
  BPRS Anxiety score: 1
[2]; Discharge, baseline 6
  BPRS Depressive Mood improvement: 5
  BPRS Depressive Mood score: 1
  BPRS Guilt feelings improvement: 5
  BPRS Guilt feelings score: 1
  BPRS Somatic Concern improvement: 5
  BPRS Somatic Concern score: 1
  BPRS Tension score: 1
